Laboratory results from patent publication US20240368203A1, “DEGRADATION OF (EGFR) BY CONJUGATION OF EGFR INHIBITORS WITH E3 LIGASE LIGAND AND METHODS OF USE” (BeiGene, Ltd., priority 2022, published 2024).

Legend:
EGFR-L858R/T790M/C797S = target: T1, EGFR-L858R/T790M/C797S (Homo sapiens, UniProt P00533, C797S/L858R/T790M); test: EGFR degradation HTRF assay in H1975-clone #25 cells; assay type: cell-based; conditions: 16 h treatment; for DC50: H1975-clone #25 (L858R/T790M/C797S) cells, IC50 (DC50), read-out: DC50(nM) H1975 # 25-LTC; for Dmax: NCI-H1975, H1975-clone #25 (L858R/T790M/C797S) cells, maximum percentage of inhibition (degradation), read-out: Dmax (%) H1975 # 25-LTC
T1 construct: expressed in transfected cells; host or cells: H1975-clone #25 (lentiviral over-expression, endogenous EGFR knocked out)
T1 sequence (P00533 25-1210 T790M/C797S/L858R): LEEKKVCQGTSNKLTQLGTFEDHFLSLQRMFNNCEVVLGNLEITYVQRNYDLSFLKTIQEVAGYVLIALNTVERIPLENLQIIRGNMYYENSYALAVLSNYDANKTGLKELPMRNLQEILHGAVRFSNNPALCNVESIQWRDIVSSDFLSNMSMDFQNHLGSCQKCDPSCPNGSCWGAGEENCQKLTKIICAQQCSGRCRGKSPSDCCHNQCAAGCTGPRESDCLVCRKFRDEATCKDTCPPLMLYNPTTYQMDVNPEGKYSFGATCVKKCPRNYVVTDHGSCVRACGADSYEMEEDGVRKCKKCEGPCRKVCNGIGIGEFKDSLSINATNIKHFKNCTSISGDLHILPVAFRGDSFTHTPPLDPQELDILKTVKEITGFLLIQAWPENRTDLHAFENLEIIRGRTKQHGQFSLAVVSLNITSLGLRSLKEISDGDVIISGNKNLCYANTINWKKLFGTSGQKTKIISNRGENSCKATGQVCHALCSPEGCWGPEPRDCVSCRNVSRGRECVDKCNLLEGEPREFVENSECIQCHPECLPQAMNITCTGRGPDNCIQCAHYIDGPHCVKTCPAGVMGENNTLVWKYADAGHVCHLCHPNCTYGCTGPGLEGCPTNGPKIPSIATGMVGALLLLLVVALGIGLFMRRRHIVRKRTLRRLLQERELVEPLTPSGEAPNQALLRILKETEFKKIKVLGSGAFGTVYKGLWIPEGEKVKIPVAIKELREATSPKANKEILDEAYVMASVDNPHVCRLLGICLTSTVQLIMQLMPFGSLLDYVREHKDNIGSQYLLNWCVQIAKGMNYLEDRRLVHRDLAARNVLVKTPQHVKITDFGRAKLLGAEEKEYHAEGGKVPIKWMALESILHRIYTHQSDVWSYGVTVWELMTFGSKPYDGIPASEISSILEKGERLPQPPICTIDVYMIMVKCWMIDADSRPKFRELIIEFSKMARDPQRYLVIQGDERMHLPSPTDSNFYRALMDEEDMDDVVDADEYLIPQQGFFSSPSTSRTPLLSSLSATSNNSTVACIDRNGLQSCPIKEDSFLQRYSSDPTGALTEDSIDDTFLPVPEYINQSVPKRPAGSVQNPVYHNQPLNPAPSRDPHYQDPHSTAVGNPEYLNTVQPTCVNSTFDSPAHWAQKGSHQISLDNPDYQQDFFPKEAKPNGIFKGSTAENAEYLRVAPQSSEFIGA
How it was run: (§1)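 H1975 clones with endogenous EGFR knocked out, homozygously expressing lentiviral L858R/T790M/C797S (#25) or Del19/T790M/C797S (#28), treated 16 h at 37° C with 8 doses from 10 uM, 5-fold, in 0.2% DMSO. EGFR in lysates measured by HTRF overnight; DC50 from four-parameter fit of % degradation.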

EGFR-Del19/T790M/C797S = test: EGFR degradation HTRF assay in H1975-clone #28 cells; assay type: cell-based; conditions: H1975-clone #28 (Del19/T790M/C797S) cells, 16 h treatment; for DC50: IC50 (DC50), read-out: DC50(nM) H1975 # 28 DTC; for Dmax (%) H1975 # 28 DTC: maximum percentage of inhibition (degradation)
How it was run: as §1

Row | SMILES | DC50 (EGFR-L858R/T790M/C797S) [nM] | Dmax (EGFR-L858R/T790M/C797S) [%] | DC50 (EGFR-Del19/T790M/C797S) [nM] | Dmax (%) H1975 # 28 DTC (EGFR-Del19/T790M/C797S) [%]
1 | CCc1ccc2c(P(C)(C)=O)c(Nc3nc(Nc4cc(CC)c(N5CCC(N6CCC(N7CC(c8cccc9c8n(C)c(=O)n9C8CCC(=O)NC8=O)C7)CC6)CC5)cc4OC)ncc3Br)ccc2n1 (centres unmarked) [Example 63, 3-(4-(1-(1′-(4-((5-bromo-4-((5-(dimethylphosphoryl)-2-ethylquinolin-6-yl)amino)pyrimidin-2-yl)amino)-2-ethyl-5-methoxyphenyl)-[1,4′-bipiperidin]-4-yl)azetidin-3-yl)-3-methyl-2-oxo-2,3-dihydro-1H-benzo[d]imidazol-1-yl)piperidine-2,6-dione] | 2.7 | 77 | 4.7 | 74
2 | CCc1cc(Nc2ncc(Br)c(Nc3ccc4nc(C)c(F)cc4c3P(C)(C)=O)n2)c(OC)cc1N1CCC(N2CCN(C3CN(c4cc(F)c([C@H]5CCC(=O)NC5=O)c(F)c4)C3)CC2)CC1 [Example 8, (R)-3-(4-(3-(4-(1-(4-((5-bromo-4-((5-(dimethylphosphoryl)-3-fluoro-2-methylquinolin-6-yl)amino)pyrimidin-2-yl)amino)-2-ethyl-5-methoxyphenyl)piperidin-4-yl)piperazin-1-yl)azetidin-1-yl)-2,6-difluorophenyl)piperidine-2,6-dione] | 1.6 | 87 | 0.6 | 80
3 | CCc1cc(Nc2ncc(Br)c(Nc3ccc4nc(C)c(F)cc4c3P(C)(C)=O)n2)c(OC)cc1N1CCC2(CCN(CC3CN(c4cccc5c4CN(C4CCC(=O)NC4=O)C5=O)C3)CC2)CC1 (centres unmarked) [Example 33, 3-(4-(3-((9-(4-((5-bromo-4-((5-(dimethylphosphoryl)-3-fluoro-2-methylquinolin-6-yl)amino)pyrimidin-2-yl)amino)-2-ethyl-5-methoxyphenyl)-3,9-diazaspiro[5.5]undecan-3-yl)methyl)azetidin-1-yl)-1-oxoisoindolin-2-yl)piperidine-2,6-dione] | 1.5 | 91 | 2.1 | 82
4 | CCOc1cc(N2CCC(N3CC4(CCN(c5cccc6c5n(C)c(=O)n6C5CCC(=O)NC5=O)CC4)C3)CC2)c(CC)cc1Nc1ncc(Cl)c(Nc2ccc3nc(C)c(F)cc3c2P(C)(C)=O)n1 (centres unmarked) [Example 32, 3-(4-(2-(1-(4-((5-chloro-4-((5-(dimethylphosphoryl)-3-fluoro-2-methylquinolin-6-yl)amino)pyrimidin-2-yl)amino)-5-ethoxy-2-ethylphenyl)piperidin-4-yl)-2,7-diazaspiro[3.5]nonan-7-yl)-3-methyl-2-oxo-2,3-dihydro-1H-benzol[d]imidazol-1-yl)piperidine-2,6-dione] | 1.3 | 81 | 1.4 | 77
5 | CCc1ncc2c(P(C)(C)=O)c(Nc3nc(Nc4cc(CC)c(N5CCC(N6CC7(CCN(c8cccc9c8n(C)c(=O)n9C8CCC(=O)NC8=O)CC7)C6)CC5)cc4OC)ncc3Br)ccc2n1 (centres unmarked) [Example 31, 3-(4-(2-(1-(4-((5-bromo-4-((5-(dimethylphosphoryl)-2-ethylquinazolin-6-yl)amino)pyrimidin-2-yl)amino)-2-ethyl-5-methoxyphenyl)piperidin-4-yl)-2,7-diazaspiro[3.5]nonan-7-yl)-3-methyl-2-oxo-2,3-dihydro-1H-benzol[d]imidazol-1-yl)piperidine-2,6-dione] | 0.6 | 86 | 0.8 | 80
6 | CCc1cc(Nc2ncc(Br)c(Nc3ccc4nc(C)c(F)cc4c3P(C)(C)=O)n2)c(OC)cc1N1CCC2(CC1)CN(C1CCN(c3cc(F)c([C@H]4CCC(=O)NC4=O)c(F)c3)CC1)C2 [Example 62, (R)-3-(4-(4-(7-(4-((5-bromo-4-((5-(dimethylphosphoryl)-3-fluoro-2-methylquinolin-6-yl)amino)pyrimidin-2-yl)amino)-2-ethyl-5-methoxyphenyl)-2,7-diazaspiro[3.5]nonan-2-yl)piperidin-1-yl)-2,6-difluorophenyl)piperidine-2,6-dione] | 1.6 | 95 | 1.4 | 89
7 | CCc1cc(Nc2ncc(Br)c(Nc3ccc4nc(C)c(F)cc4c3P(C)(C)=O)n2)c(OC)cc1N1CCC(N2CCC3(CCN(c4cc(F)c([C@H]5CCC(=O)NC5=O)c(F)c4)C3)C2)CC1 (stereo partly drawn) [Example 17, (3R)-3-(4-(7-(1-(4-((5-bromo-4-((5-(dimethylphosphoryl)-3-fluoro-2-methylquinolin-6-yl)amino)pyrimidin-2-yl)amino)-2-ethyl-5-methoxyphenyl)piperidin-4-yl)-2,7-diazaspiro[4.4]nonan-2-yl)-2,6-difluorophenyl)piperidine-2,6-dione] | 2.9 | 87 | 1.7 | 92
8 | CCc1cc(Nc2ncc(Br)c(Nc3ccc4nc(C)c(F)cc4c3P(C)(C)=O)n2)c(OC)cc1N1CCC2(CCN(C[C@@H]3CCN(c4ccc5c(c4)C(=O)N(C4CCC(=O)NC4=O)C5=O)C3)CC2)CC1 (stereo partly drawn) [Example 49, 5-((S)-3-((9-(4-((5-bromo-4-((5-(dimethylphosphoryl)-3-fluoro-2-methylquinolin-6-yl)amino)pyrimidin-2-yl)amino)-2-ethyl-5-methoxyphenyl)-3,9-diazaspiro[5.5]undecan-3-yl)methyl)pyrrolidin-1-yl)-2-(2,6-dioxopiperidin-3-yl)isoindoline-1,3-dione] | 7.6 | 89 | 3.8 | 82
9 | CCc1ncc2c(P(C)(C)=O)c(Nc3nc(Nc4cc(CC)c(N5CCC(N6CCC7(CCN(c8cc(F)c([C@H]9CCC(=O)NC9=O)c(F)c8)CC7)CC6)CC5)cc4OC)ncc3Br)ccc2n1 (single isomer, unassigned) [Example 4] | 2.5 | 84 | 1.5 | 87
10 | COc1cc(N2CCC3(CC2)CCN(C2CCN(c4cc(F)c([C@H]5CCC(=O)NC5=O)c(F)c4)CC2)CC3)c(C)cc1Nc1ncc(Br)c(Nc2ccc3nccnc3c2P(C)(C)=O)n1 [Example 36, (R)-3-(4-(4-(9-(4-((5-bromo-4-((5-(dimethylphosphoryl)quinoxalin-6-yl)amino)pyrimidin-2-yl)amino)-5-methoxy-2-methylphenyl)-3,9-diazaspiro [5.5]undecan-3-yl)piperidin-1-yl)-2,6-difluorophenyl)piperidine-2,6-dione] | 4.5 | 94 | 3.1 | 93
11 | CCc1cc(Nc2ncc(Br)c(Nc3ccc4nc(C)c(F)cc4c3P(C)(C)=O)n2)c(OC)cc1N1CCC2(CCN(CC3CCN(c4ccc5c(c4)C(=O)N(C4CCC(=O)NC4=O)C5=O)CC3)CC2)CC1 (centres unmarked) [Example 46, 5-(4-((9-(4-((5-bromo-4-((5-(dimethylphosphoryl)-3-fluoro-2-methylquinolin-6-yl)amino)pyrimidin-2-yl)amino)-2-ethyl-5-methoxyphenyl)-3,9-diazaspiro [5.5]undecan-3-yl)methyl)piperidin-1-yl)-2-(2,6-dioxopiperidin-3-yl)isoindoline-1,3-dione] | 5.4 | 89 | 3.3 | 80
12 | CCc1ncc2c(P(C)(C)=O)c(Nc3nc(Nc4cc(CC)c(N5CCC(N6CCN([C@H]7CCN(c8cc(F)c([C@H]9CCC(=O)NC9=O)c(F)c8)C7)CC6)CC5)cc4OC)ncc3Br)ccc2n1 (single isomer, unassigned) [Example 9] | 3.8 | 86 | 1.3 | 86
13 | CCc1cc(Nc2ncc(Br)c(Nc3ccc4nc(C)c(F)cc4c3P(C)(C)=O)n2)c(OC)cc1N1CCC(N2CCN(C(=O)C3CN(c4ccc(F)c5c4n(C)c(=O)n5[C@H]4CCC(=O)NC4=O)C3)CC2)CC1 [Example 24, (S)-3-(4-(3-(4-(1-(4-((5-bromo-4-((5-(dimethylphosphoryl)-3-fluoro-2-methylquinolin-6-yl)amino)pyrimidin-2-yl)amino)-2-ethyl-5-methoxyphenyl)piperidin-4-yl)piperazine-1-carbonyl)azetidin-1-yl)-7-fluoro-3-methyl-2-oxo-2,3-dihydro-1H-benzo[d]imidazol-1-yl)piperidine-2,6-dione] | 1.4 | 88 | 0.6 | 87
14 | CCc1cc(Nc2ncc(Br)c(Nc3ccc4nc(C)c(F)cc4c3P(C)(C)=O)n2)c(OC)cc1N1CCC2(CC1)CCN(C1CCN(c3ccc4c(c3)C(=O)N(C3CCC(=O)NC3=O)C4=O)CC1)CC2 (centres unmarked) [Example 92, 5-(4-(9-(4-((5-bromo-4-((5-(dimethylphosphoryl)-3-fluoro-2-methylquinolin-6-yl)amino)pyrimidin-2-yl)amino)-2-ethyl-5-methoxyphenyl)-3,9-diazaspiro[5.5]undecan-3-yl)piperidin-1-yl)-2-(2,6-dioxopiperidin-3-yl)isoindoline-1,3-dione] | 8.2 | 85 | 3.3 | 67
